Reference: patent US11306081B2, “Phenylacetamides as inhibitors of rock” (BRISTOL-MYERS SQUIBB COMPANY, priority 2017, dated 2022)

target: ROCK2 (Homo sapiens (Human), UniProt O75116); test: ROCK assay (LABCHIP 3000 peptide phosphorylation assay); assay type: biochemical; settings: 5 μM ATP, 1.5 μM peptide substrate, dose-response
How it was run: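 Rho kinase variants in 20 mM HEPES pH 7.5, 20 mM MgCl2, 0.015% Brij-35, 4 mM DTT, 5 μM ATP, 1.5 μM FITC-AHA-AKRRRLSSLRA-OH peptide; DMSO <2%. EDTA-stopped; phosphorylated/non-phosphorylated peptide separated by microfluidic LabChip readout. Dose-response inhibition curve-fitted to give IC50.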

Chain of ROCK2 (O75116 whole entry, species assumed): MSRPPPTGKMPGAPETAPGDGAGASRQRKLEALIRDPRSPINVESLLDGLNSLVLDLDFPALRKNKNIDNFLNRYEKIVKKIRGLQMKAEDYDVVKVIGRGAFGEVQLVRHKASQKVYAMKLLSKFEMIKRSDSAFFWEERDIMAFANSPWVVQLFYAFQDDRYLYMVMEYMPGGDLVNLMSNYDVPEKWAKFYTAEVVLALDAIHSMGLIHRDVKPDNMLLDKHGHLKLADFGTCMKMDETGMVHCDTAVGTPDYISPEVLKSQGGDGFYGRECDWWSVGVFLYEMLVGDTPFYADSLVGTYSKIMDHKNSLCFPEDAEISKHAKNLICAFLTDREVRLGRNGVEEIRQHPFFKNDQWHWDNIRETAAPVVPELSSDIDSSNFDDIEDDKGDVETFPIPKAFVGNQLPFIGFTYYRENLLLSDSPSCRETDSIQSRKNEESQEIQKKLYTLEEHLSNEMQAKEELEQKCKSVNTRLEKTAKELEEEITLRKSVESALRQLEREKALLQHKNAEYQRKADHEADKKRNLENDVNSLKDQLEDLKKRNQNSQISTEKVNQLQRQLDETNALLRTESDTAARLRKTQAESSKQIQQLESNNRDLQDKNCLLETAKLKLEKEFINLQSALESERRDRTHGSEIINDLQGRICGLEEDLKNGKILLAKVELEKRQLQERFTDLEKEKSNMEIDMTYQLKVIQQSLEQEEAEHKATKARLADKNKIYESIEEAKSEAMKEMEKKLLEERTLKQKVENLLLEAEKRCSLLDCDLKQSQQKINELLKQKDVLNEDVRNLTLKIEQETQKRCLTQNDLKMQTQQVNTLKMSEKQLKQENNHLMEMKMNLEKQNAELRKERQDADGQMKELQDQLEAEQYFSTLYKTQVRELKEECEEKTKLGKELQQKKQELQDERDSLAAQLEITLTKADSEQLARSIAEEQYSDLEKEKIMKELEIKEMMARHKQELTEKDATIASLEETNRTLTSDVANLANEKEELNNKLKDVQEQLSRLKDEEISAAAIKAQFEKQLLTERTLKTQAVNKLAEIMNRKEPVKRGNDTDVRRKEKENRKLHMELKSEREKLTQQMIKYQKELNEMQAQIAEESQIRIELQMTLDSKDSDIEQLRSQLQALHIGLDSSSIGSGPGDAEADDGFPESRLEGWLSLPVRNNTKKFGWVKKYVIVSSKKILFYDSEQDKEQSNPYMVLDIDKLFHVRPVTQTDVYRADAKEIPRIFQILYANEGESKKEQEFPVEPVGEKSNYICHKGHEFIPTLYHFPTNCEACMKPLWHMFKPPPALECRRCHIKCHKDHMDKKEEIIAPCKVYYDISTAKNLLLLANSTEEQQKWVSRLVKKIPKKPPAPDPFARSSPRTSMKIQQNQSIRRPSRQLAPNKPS

Row | SMILES | IC50
1 | Cc1cccc2nc(NC(=O)Cc3ccc(Oc4ncccc4C(N)=O)c(F)c3)nn12 [Example 096, 2-(2-fluoro-4-(2-((5-methyl-[1,2,4]triazolo[1,5-a]pyridin-2-yl)amino)-2-oxoethyl)phenoxy) nicotinamide] | 110 nM
2 | NC(=O)c1cccnc1Oc1ccc(CC(=O)Nc2nnc(-c3ccncc3)s2)cc1F [Example 097, 2-(2-fluoro-4-(2-oxo-2-((5-(pyridin-4-yl)-1,3,4-thiadiazol-2-yl)amino)ethyl)phe-noxy)nicotinamide] | 336 nM
3 | Cc1nc(NC(=O)Cc2ccc(Oc3ncccc3C(N)=O)c(F)c2)sc1C [Example 098, 2-(4-(2-((4,5-dimethylthiazol-2-yl)amino)-2-oxoethyl)-2-fluorophenoxy)nico-tinamide] | 31 nM
4 | NC(=O)c1cccnc1Oc1ccc(CC(=O)Nc2ccn(CC(F)(F)F)n2)cc1F [Example 099, 2-(2-fluoro-4-(2-oxo-2-((1-(2,2,2-trifluoroethyl)-1H-pyrazol-3-yl)amino)ethyl)phe-noxy)nicotinamide] | 583 nM
5 | NC(=O)c1cccnc1Oc1ccc(CC(=O)Nc2ccn(-c3ccc(C(F)(F)F)cn3)n2)cc1F [Example 100, 2-(2-fluoro-4-(2-oxo-2-((1-(5-(trifluoromethyl)pyridin-2-yl)-1H-pyrazol-3-yl)amino)ethyl)phe-noxy)nicotinamide] | 191 nM
6 | NC(=O)c1cccnc1Oc1ccc(CC(=O)Nc2nc(C3CC3)ns2)cc1F [Example 101, 2-(4-(2-((3-cyclopropyl-1,2,4-thiadiazol-5-yl)amino)-2-oxoethyl)-2-fluorophenoxy)nico-tinamide] | 261 nM
7 | Cc1sc(NC(=O)Cc2ccc(Oc3ncccc3C(N)=O)c(Cl)c2)nc1-c1cccnc1F [Example 102, 2-(2-chloro-4-(2-((4-(2-fluoropyridin-3-yl)-5-methylthiazol-2-yl)amino)-2-oxoethyl)phenoxy) nicotinamide] | 12 nM
8 | Cc1sc(NC(=O)Cc2ccc(Oc3ncccc3C(N)=O)c(Cl)c2)nc1-c1ccc(F)nc1 [Example 103, 2-(2-chloro-4-(2-((4-(6-fluoropyridin-3-yl)-5-methylthiazol-2-yl)amino)-2-oxoethyl)phenoxy) nicotinamide] | 17 nM
9 | Cc1sc(NC(=O)Cc2ccc(Oc3ncccc3C(N)=O)c(Cl)c2)nc1-c1cnn(C)c1 [Example 104, 2-(2-chloro-4-(2-((5-methyl-4-(1-methyl-1H-pyrazol-4-yl)thiazol-2-yl)amino)-2-oxoethyl)phenoxy) nicotinamide] | 7 nM
10 | Cc1sc(NC(=O)Cc2ccc(Oc3ncccc3C(N)=O)c(Cl)c2)nc1-c1ccc(Cl)nc1 [Example 105, 2-(2-chloro-4-(2-((4-(6-chloropyridin-3-yl)-5-methylthiazol-2-yl)amino)-2-oxoethyl)phenoxy) nicotinamide] | 15 nM
11 | COc1ccc2c(c1)CCc1sc(NC(=O)C(C)c3ccc(Oc4ncccc4C(N)=O)cc3)nc1-2 (stereo not shown) [Example 106, 2-(4-(1-((7-methoxy-4,5-dihydronaphtho[1,2-d]thiazol-2-yl)amino)-1-oxopropan-2-yl)phenoxy)nicotinamide] | 262 nM
12 | CC(C)(O)COc1ccc2sc(NC(=O)Cc3ccc(Oc4ncccc4C(N)=O)cc3)nc2c1 [Example 107, 2-(4-(2-((5-(2-hydroxy-2-methylpropoxy)benzo[d]thiazol-2-yl)amino)-2-oxoethyl)phenoxy)nicotinamide] | 29 nM
13 | CC(C)(O)COc1ccc2c(c1)CCc1sc(NC(=O)Cc3ccc(Oc4ncccc4C(N)=O)cc3)nc1-2 [Example 108, 2-(4-(2-((7-(2-hydroxy-2-methylpropoxy)-4,5-dihydronaphtho[1,2-d]thiazol-2-yl)amino)-2-oxoethyl)phenoxy)nicotinamide] | 40 nM
14 | CC(C)(O)COc1ccc2nc(NC(=O)Cc3ccc(Oc4ncccc4C(N)=O)cc3)sc2c1 [Example 109, 2-(4-(2-((6-(2-hydroxy-2-methylpropoxy)benzo[d]thiazol-2-yl)amino)-2-oxoethyl)phenoxy)nicotinamide] | 74 nM
15 | CC(C)(O)COc1ccn2nc(NC(=O)Cc3ccc(Oc4ncccc4C(N)=O)c(F)c3)nc2c1 [Example 110, 2-(2-fluoro-4-(2-((7-(2-hydroxy-2-methylpropoxy)-[1,2,4]triazolo[1,5-a]pyridin-2-yl)amino)-2-oxoethyl)phenoxy)nicotinamide] | 36 nM
16 | NC(=O)c1cccnc1Oc1ccc(CC(=O)Nc2nc3ccccc3n2CC(F)F)cc1F [Example 111, 2-(4-(2-((1-(2,2-difluoroethyl)-1H-benzo[d]imidazol-2-yl)amino)-2-oxoethyl)-2-fluorophenoxy)nicotinamide] | 37 nM
17 | CC(C)(O)COc1ccc2sc(NC(=O)Cc3ccc(Oc4ncccc4C(N)=O)c(Cl)c3)nc2c1 [Example 112, 2-(2-chloro-4-(2-((5-(2-hydroxy-2-methylpropoxy)benzo[d]thiazol-2-yl)amino)-2-oxoethyl)phenoxy)nicotinamide] | 6 nM
18 | CC(C)(O)COc1ccc2c(c1)CCc1sc(NC(=O)Cc3ccc(Oc4ncccc4C(N)=O)c(Cl)c3)nc1-2 [Example 113, 2-(2-chloro-4-(2-((7-(2-hydroxy-2-methylpropoxy)-4,5-dihydronaphtho[1,2-d]thiazol-2-yl)amino)-2-oxoethyl)phenoxy)nicotinamide] | 58 nM
19 | CC(C)(O)COc1ccc2c(c1)N(C(=O)Cc1ccc(Oc3ncccc3C(N)=O)c(F)c1)CC2 [Example 114, 2-(2-fluoro-4-(2-(6-(2-hydroxy-2-methylpropoxy)indolin-1-yl)-2-oxoethyl)phenoxy)nicotinamide] | 162 nM
20 | COc1ccc2c(c1)CCc1sc(NC(=O)Cc3ccc(Oc4ncccc4C(N)=O)c(Cl)c3)nc1-2 [Example 116, 2-(2-chloro-4-(2-((7-methoxy-4,5-dihydronaphtho[1,2-d]thiazol-2-yl)amino)-2-oxoethyl)phenoxy)nicotinamide] | 8 nM

Now from value to molecule:

Row | IC50 | SMILES
21 | 139 nM | COc1ccc2sc(NC(=O)Cc3ccc(Oc4ncccc4C(N)=O)c(OC)c3)nc2c1 [Example 117, 2-(2-methoxy-4-(2-((5-methoxybenzo[d]thiazol-2-yl)amino)-2-oxoethyl)phenoxy)nicotinamide]
22 | 650 nM | COc1cc(CC(=O)Nc2nc3cc(OCC(C)(C)O)ccc3s2)ccc1Oc1ncccc1C(N)=O [Example 118, 2-(4-(2-((5-(2-hydroxy-2-methylpropoxy)benzo[d]thiazol-2-yl)amino)-2-oxoethyl)-2-methoxyphenoxy)nicotinamide]
23 | 6 nM | COc1ccn2nc(NC(=O)Cc3ccc(Oc4ncccc4C(N)=O)c(Br)c3)nc2c1 [Example 119, 2-(2-bromo-4-(2-((7-methoxy-[1,2,4]triazolo[1,5-a]pyridin-2-yl)amino)-2-oxoethyl)phenoxy)nicotinamide]
24 | 23 nM | COc1ccc2c(c1)nc(NC(=O)Cc1ccc(Oc3ncccc3C(N)=O)c(F)c1)n2CC(F)F [Example 120, 2-(4-(2-((1-(2,2-difluoroethyl)-5-methoxy-1H-benzo[d]imidazol-2-yl)amino)-2-oxoethyl)-2-fluorophenoxy)nicotinamide]
25 | 45 nM | NC(=O)c1cccnc1Oc1ccc(CC(=O)Nc2nc3ccc(OC(F)F)nc3s2)cc1Cl [Example 121, 2-(2-chloro-4-(2-((5-(difluoro-methoxy)thiazolo-[5,4-b]pyridin-2-yl)amino)-2-oxoethyl)phenoxy)-nicotinamide]
26 | 97 nM | NC(=O)c1cccnc1Oc1ccc(CC(=O)Nc2n[nH]c3ccccc23)cc1Cl [Example 122, 2-(4-(2-((1H-indazol-3-yl)-amino)-2-oxoethyl)-2-chlorophenoxy)-nicotinamide]
27 | 18 nM | COc1ccc2nc(NC(=O)Cc3ccc(Oc4ncccc4C(N)=O)c(F)c3)n(CC(F)F)c2c1 [Example 123, 2-(4-(2-((1-(2,2-difluoroethyl)-6-methoxy-1H-benzo-[d]imidazol-2-yl)-amino)-2-oxoethyl)-2-fluorophenoxy)-nicotinamide]
28 | 68.5 nM | COc1ccn2nc(NC(=O)Cc3ccc(Oc4ncccc4C(N)=O)cc3)nc2c1 [Example 124, 2-(4-(2-((7-methoxy-[1,2,4]-triazolo[1,5-a]-pyridin-2-yl)-amino)-2-oxo-ethyl)phenoxy)-nicotinamide]
29 | 12 nM | COc1ccn2nc(NC(=O)Cc3ccc(Oc4ncccc4C(N)=O)c(Cl)c3)nc2c1 [Example 125, 2-(2-chloro-4-(2-((7-methoxy-[1,2,4]triazolo-[1,5-a]pyridin-2-yl)amino)-2-oxoethyl)phenoxy)-nicotinamide]
30 | 82 nM | NC(=O)c1cccnc1Oc1ccc(CC(=O)Nc2nc3cccc(C(F)(F)F)n3n2)cc1F [Example 126, 2-(2-fluoro-4-(2-oxo-2-((5-(trifluoro-methyl)-[1,2,4]-triazolo[1,5-a]-pyridin-2-yl)amino)-ethyl)phenoxy)-nicotinamide]
31 | 127 nM | NC(=O)c1cccnc1Oc1ccc(CC(=O)Nc2nc3c(F)cccn3n2)cc1F [Example 127, 2-(2-fluoro-4-(2-((8-fluoro-[1,2,4]-triazolo[1,5-a]-pyridin-2-yl)amino)-2-oxoethyl)phenoxy)-nicotinamide]
32 | 301 nM | NC(=O)c1cccnc1Oc1ccc(CC(=O)Nc2nc3ccc(F)cn3n2)cc1F [Example 128, 2-(2-fluoro-4-(2-((6-fluoro-[1,2,4]-triazolo[1,5-a]-pyridin-2-yl)amino)-2-oxoethyl)phenoxy)-nicotinamide]
33 | 69 nM | NC(=O)c1cccnc1Oc1ccc(CC(=O)Nc2nc3ccc(C(F)(F)F)cn3n2)cc1F [Example 129, 2-(2-fluoro-4-(2-oxo-2-((6-(trifluoromethyl)-[1,2,4]triazolo-[1,5-a]pyridin-2-yl)amino)ethyl)-phenoxy)nicotin-amide]
34 | 23 nM | Cc1cc2nc(NC(=O)Cc3ccc(Oc4ncccc4C(N)=O)c(F)c3)nn2cc1C [Example 130, 2-(4-(2-((6,7-dimethyl-[1,2,4]-triazolo[1,5-a]-pyridin-2-yl)-amino)-2-oxoethyl)-2-fluorophenoxy)-nicotinamide]
